From patent publication US20090043378A1, “Biocompatible Polymer System for Extended Drug Release” (priority 2007, published 2009)
Converted amounts (≈) assume the structure as drawn.

Assays:
[1] = Octanol-water partition coefficient of zotarolimus; type: physicochemical
Description: In one embodiment, the drug is zotarolimus (Formula 1) ([…], molecular weight=966.5 g/mol), a tetrazole-containing macrocyclic immunosuppressant. […] The mechanism of action of zotarolimus is binding to FKBP12, leading to the formation of a trimeric complex with the protein kinase mTOR (mammalian target of rapamycin) thereby inhibiting its activity. Inhibition of mTOR results in the inhibition of protein phosphorylation events associated with translation of mRNA and cell cycle control.

physchem = type: physicochemical
Description: The hydrophobicity of zotarolimus enhances its absorption across the cellular membrane leading to inhibition of neointimal proliferation of the target tissues.

Monocytic U937 cells = test: Monocyte adhesion to polymer coated wells (calcein uptake); type: cell-based
Description: Monocytic U937 cells were purchased from ATCC Cell Biology Collection and maintained in culture according to vendor recommendations. U937 cells were seeded at 1×10^5/well onto polymer coated 96 well plates. The cells were stimulated with lipopolysaccharide (LPS) (100 ng/mL) and phorbol-12-myristate-13-acetate (PMA) (100 ng/mL) to induce differentiation and inflammatory activation. […] Adhesion of U937 cells to the polymer scaffold was assessed by calcein uptake as detailed in the following protocol. U937 cells were fluorescently labeled by incubation with calcein (1 mg/mL) for 30 minutes. Calcein is a fluorescent dye hydrolyzed by esterases in viable cells. The percent uptake of calcein is directly proportional to the number of viable cells in the well. The percent of cell adhesion was determined by reading the fluorescent measurements prior to and after gentle PBS washing of the adherent monocytes from the polymer coated plates. […] To calculate the relative percent adhesion, the ratio between the fluorescent measurement prior to and after gentle PBS washing of the adherent monocytes from the polymer coated plates was first determined. […]
In order to evaluate, in vitro, the polymers potential to elicit an inflammatory response, the adhesion of activated monocytes to the components of various polymers were measured, individually and in combination (C10, C19, and C10/C19).

`CO[C@H]1C[C@@H]2CC[C@@H](C)[C@@](O)(O2)C(=O)C(=O)N2CCCC[C@H]2C(=O)O[C@H]([C@H](C)C[C@@H]2CC[C@H](n3cnnn3)[C@H](OC)C2)CC(=O)[C@H](C)/C=C(\C)[C@@H](O)[C@@H](OC)C(=O)[C@H](C)C[C@H](C)/C=C/C=C/C=C/1C` [zotarolimus] showed an octanol-water partition coefficient ([1]; pH 6.5) greater than 4.5, an octanol-water partition coefficient ([1]; pH 7.4) greater than 4.5 and a solubility (physchem; pH 6.5, aqueous buffer) of 0.47 µg/mL (≈ 0.486 µM). For the same compound, the solubility (physchem; pH 7.4, aqueous buffer) was 0.53 µg/mL (≈ 0.549 µM).
In the case of Poly(butyl methacrylate) [PBMA], the “monocyte adherence, fold induction over non-stimulated, negative control cells” value (Monocytic U937 cells) is reported as 12.6 fold.
